Experimental data as given in ChEMBL document CHEMBL3120127, “2,4-Diaminothienopyrimidines as orally active antimalarial agents” (J Med Chem, 2014).
In brackets after ≈: the same amount, converted by molar mass.

Tests used:
[1] = Solubility of the compound in phosphate buffer at pH 6.5 by HPLC-DAD-MS analysis; type: physicochemical
[2] = Solubility of the compound in 0.01 M HCl at pH 2; type: physicochemical
[3] = Solubility of the compound in phosphate buffer at pH 6.5 by nephlometric analysis; type: physicochemical
[4] = physchem; conditions: octanol/water, pH 7.4
[5] = Volume of distribution at steady state in Sprague-Dawley rat blood at 4 mg/kg, iv; type: ADME, organism-based; design: dose 4 mg/kg, route intravenous; conditions: read-out: Vdss
[6] = Volume of distribution at steady state in Sprague-Dawley rat plasma at 4 mg/kg, iv; type: ADME, organism-based; design: dose 4 mg/kg, route intravenous; conditions: read-out: Vdss
[7] = Oral bioavailability in Sprague-Dawley rat at 19 mg/kg; type: ADME, organism-based; conditions: in vivo
[8] = AUC (0 to infinity) in Sprague-Dawley rat at 4 mg/kg, iv; type: ADME, organism-based; design: dose 4 mg/kg, route intravenous, time infinity; conditions: plasma
[9] = tested on: Rattus norvegicus; assay: AUC (0 to infinity) in Sprague-Dawley rat at 19 mg/kg, po; type: ADME, organism-based, Plasma; design: time infinity, dose 19 mg/kg, route oral; conditions: in vivo
[10] = tested on: Rattus norvegicus; assay: Tmax in Sprague-Dawley rat at 19 mg/kg, po; type: ADME, organism-based; design: dose 19 mg/kg, route oral; conditions: in vivo
[11] = tested on: Rattus norvegicus; assay: Cmax in Sprague-Dawley rat at 19 mg/kg, po; type: ADME, organism-based; design: dose 19 mg/kg, route oral; conditions: in vivo
[12] = Plasma concentration in Swiss outbred mouse infected with Plasmodium berghei at 50 mg/kg, po measured at 24 hrs; type: ADME, organism-based; design: dose 50 mg/kg, route oral
[13] = Plasma concentration in Swiss outbred mouse infected with Plasmodium berghei at 50 mg/kg, po measured at 4 hrs; type: ADME, organism-based; design: dose 50 mg/kg, route oral
[14] = Plasma concentration in Swiss outbred mouse infected with Plasmodium berghei at 50 mg/kg, po measured at 1 hr; type: ADME, organism-based; design: dose 50 mg/kg, route oral

SMILES	solubility [1] [µg/mL]	solubility [2] [µg/mL]	solubility kinetic [3] [µg/mL]	chromatographic logD [4]	further results
CNc1nc(NCCCN(C)C)c2sc(-c3ccoc3)cc2n1	203 (≈ 612 µM)	221 (≈ 667 µM)	–	–	–
CNc1nc(NCCCN(C)C)c2sc(-c3ccc(N)cc3)cc2n1	–	> 100	12.5 (≈ 35.1 µM)	2.3	–
CNc1nc(NCCCN(C)C)c2sc(-c3ccc(S(C)(=O)=O)cc3)cc2n1	–	> 100	25 (≈ 59.6 µM)	2.1	–
CNc1nc(NCCCN(C)C)c2sc(-c3ccc(OC(F)(F)F)cc3)cc2n1	–	> 100	> 100	4.6	–
CNc1nc(NCCCN(C)C)c2sc(-c3ccccc3)cc2n1	–	> 100	> 100	2.2	Vd [5]: 37 L/kg; Vd [6]: 139 L/kg; bioavailability [7]: 34%; AUC(0-inf) [8]: 1.28 µM·h; AUC [9]: 125 µM·min; Tmax [10]: 1.75 h; Cmax [11]: 8 nM
CNc1nc(NCCCN(C)C)c2sc(-c3ccc(-n4cccn4)cc3)cc2n1	191 (≈ 469 µM)	217 (≈ 532 µM)	–	–	–
CNc1nc(NCCCN(C)C)c2sc(-c3ccc(N4CCNCC4)cc3)cc2n1	–	> 100	12.5 (≈ 29.4 µM)	3.5	–
CNc1nc(NCCCN(C)C)c2sc(-c3cncnc3)cc2n1	194 (≈ 565 µM)	214 (≈ 623 µM)	–	–	–
CNc1nc(NCCCN(C)C)c2sc(-c3ccc(C(F)(F)F)nc3)cc2n1	–	> 100	12.5 (≈ 30.5 µM)	3	–
CNc1nc(NCCCN(C)C)c2sc(-c3cc(C(F)(F)F)cc(C(F)(F)F)c3)cc2n1	130 (≈ 272 µM)	186 (≈ 390 µM)	–	–	–
CNc1nc(NCCCN(C)C)c2sc(-c3ccc(C(C)=O)cc3)cc2n1	–	> 100	12.5 (≈ 32.6 µM)	2.9	–
CNc1nc(NCCCN(C)C)c2sc(-c3cccc(C(F)(F)F)c3)cc2n1	160 (≈ 391 µM)	180 (≈ 440 µM)	–	–	–
CNc1nc(NCCCN(C)C)c2cc(-c3ccccc3)sc2n1	184 (≈ 539 µM)	216 (≈ 633 µM)	–	–	–
CNc1nc(NCCCN(C)C)c2sc(-c3ccc(F)cc3)cc2n1	–	–	–	–	concentration at 24 h [12]: 40 nM; concentration at 4 h [13]: 90 nM; concentration at 1 h [14]: 140 nM
CNc1nc(NCCCN(C)C)c2sc(-c3ccc(C(F)(F)F)cc3)cc2n1	177 (≈ 432 µM)	240 (≈ 586 µM)	–	4.1	concentration at 24 h [12]: 210 nM; concentration at 4 h [13]: 220 nM; concentration at 1 h [14]: 410 nM
CNc1nc(NCCCN(C)C)c2sc(-c3ccc(NS(C)(=O)=O)cc3)cc2n1	–	> 100	25 (≈ 57.5 µM)	2.1	–
CNc1nc(NCCCN(C)C)c2sc(-c3ccc(OC)nc3)cc2n1	–	> 100	25 (≈ 67.1 µM)	2.8	–
CNc1nc(NCCCN(C)C)c2sc(-c3cccc(C#N)c3)cc2n1	–	> 100	25 (≈ 68.2 µM)	2.9	–
CNc1nc(NCCCN(C)C)c2sc(-c3ccc(N4CCOCC4)cc3)cc2n1	–	12.5 (≈ 29.3 µM)	12.5 (≈ 29.3 µM)	3	–
CNc1nc(NCCCN(C)C)c2sc(-c3ccc(C(=O)N4CCOCC4)cc3)cc2n1	–	> 100	25 (≈ 55 µM)	2.2	–
CNc1nc(NCCCN(C)C)c2sc(-c3ccc(C(F)(F)F)cc3Cl)cc2n1	–	> 100	> 100	4.5	–
CNc1nc(NCCCN(C)C)c2sc(-c3cccc(OC(F)(F)F)c3)cc2n1	–	> 100	> 100	4.3	–
CNc1nc(NCCCN(C)C)c2oc(-c3ccccc3)cc2n1	203 (≈ 624 µM)	214 (≈ 658 µM)	–	–	–
CNc1nc(NCCCN(C)C)c2sc(-c3ccc4nonc4c3)cc2n1	–	> 100	25 (≈ 65.2 µM)	3.3	–
CNc1nc(NCCCN(C)C)c2sc(-c3ccc(C#N)cc3)cc2n1	–	> 100	50 (≈ 136 µM)	–	–
